Experimental data as given in patent US20110207729A1, “BICYCLIC ACYLGUANIDINE DERIVATIVE” (ASTELLAS PHARMA INC., priority 2007, published 2011).

Molecular target: T1, human 5-HT5A receptor (Homo sapiens, UniProt P47898)
T1 construct: expressed in transfected cells; membrane preparation
Assay: Test on a human 5-HT5A receptor binding inhibition ([3H]5-CT)
Settings: membrane from HEK293 cells expressing human 5-HT5A receptor; Ki calculated from IC50 and Kd 4.95 nM
Method: Acquisition of HEK293 cells for forced expressions of a human 5-HT5A receptor
The ORF (open reading frame; protein coding region) of a human 5-HT5A receptor (Genbank AF498985) was cloned from a human hippocampus cDNA library, and then inserted into a pCR2.1 vector (Invitrogen), and Escherichia coli containing the plasmid was cultured in a large amount. Next, the full-length cDNA sequence of the human 5-HT5A receptor was analyzed, and recombined into a pcDNA3.1 vector (Invitrogen) as an expression vector and cultured in a large amount. HEK293 established cells (ATCC) derived from the human fetal kidney were seeded, the expression plasmid (1 μg) obtained above were added thereto with LIPOFECTAMINE 2000 (Invitrogen; 2 μl), the gene was transfected into HEK293 cells, and the expression cells were screened with a drug-resistant marker, Geneticin (G418 sulfate 500 μg/ml; Kanto Chemical Co., Inc.). Thus prepared recombinant cells which express the gene were cultured in a medium containing D-MEM (Dulbecco's modified eagle medium, Sigma), 10% FCS (Fetal calf serum: fetal bovine serum), 1% Pc./Sm (Penicillin/Streptomycin, Invitrogen), and 500 μg/ml G418 for 3 days. These experimental operations follow an manual for gene operation experiment and an instruction appended in a reagent, and the like, such as a known method (Sambrook, J. et al, Molecular Cloning—A Laboratory Manual”, Cold Spring Harabor laboratory, NY, 1989).
(1) Preparation of a Membrane from HEK293 Cells for Forced Expressions of a Human 5-HT5A Receptor
HEK293 cells for forced expressions of a human 5-HT5A receptor were cultured in a F500 plate, and scraped with a scraper. After centrifugation, a precipitate was collected, and an incubation buffer (50 mM Tris (HCl) (pH 7.4), 10 mM MgSO4, and 0.5 mM EDTA (ethylenediamine tetraacetic acid)) were added thereto. After homogenization, it was further centrifuged, and the precipitate was added with the incubation buffer, followed by thoroughly suspending. This operation was repeated, and a protein concentration was measured, thereby completing the preparation of a membrane.
(2) Test on a Human 5-HT5A Receptor Binding Inhibition
A solution of a compound to be tested and 100 μM 5-CT (5-carboxamidetriptamine) in DMSO was added to a 96-well plate at 2 μl/well, and suspended in an incubation buffer, and a membrane from HEK293 cells for forced expressions of a human 5-HT5A receptor prepared at 200 μg/ml was added at 100 μl/well. After incubation at room temperature for 15 minutes, a [^3H]5-CT solution (2 nM [^3H]5-CT, incubation buffer) was added thereto at 100 μl/well.
Separately, 100 μl of the solution was distributed into a liquid scintillation vial, and 2 ml of Aquasol II (registered trademark) was added thereto, followed by stirring. Then, a radioactivity was measured by a liquid scintillation counter. It was incubated at 37° C. for 60 minutes. The reaction mixture was sucked into 96-well GF/C filter plate that had been pre-treated with 0.2% polyethyleneimine, and washed six times with an ice-cooled, 50 mM Tris (pH 7.5) buffer. The GF/C filter plate was dried.
Microscint TMPS (registered trademark) was added thereto at 40 μl/well. A radioactivity remaining on the GF/C filter plate was measured by a top counter.
The [^3H]5-CT binding inhibiting activity by the compound to be tested in each experiment was determined as an IC50 value with a radioactivity upon addition of DMSO alone being 0% inhibition, and a radioactivity upon addition of 1 μM 5-CT being 100% inhibition. Separately, a Ki value was calculated from the Kd value of the [^3H]5-CT determined from Scatchard analysis, by the following equation.
Ki=IC50(1+Concentration of ligands added/Kd(4.95 nM))

T1 sequence (P47898 whole entry): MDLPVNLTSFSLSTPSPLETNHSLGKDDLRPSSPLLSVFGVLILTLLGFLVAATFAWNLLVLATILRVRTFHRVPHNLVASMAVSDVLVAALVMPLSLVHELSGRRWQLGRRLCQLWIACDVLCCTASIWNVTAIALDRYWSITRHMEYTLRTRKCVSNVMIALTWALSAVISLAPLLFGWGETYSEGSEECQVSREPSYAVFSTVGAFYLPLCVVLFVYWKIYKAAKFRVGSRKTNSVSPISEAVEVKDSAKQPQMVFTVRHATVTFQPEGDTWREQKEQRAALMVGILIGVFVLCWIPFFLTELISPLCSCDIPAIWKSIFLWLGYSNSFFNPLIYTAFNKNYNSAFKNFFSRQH

| Structure (SMILES) | Ki [µM] |
| --- | --- |
| NC(N)=NC(=O)c1ccc2c(c1)C(c1ccccc1Oc1ccccc1)=CCC2 [Example 2-33] | 0.03 to 0.3 |
| NC(N)=NC(=O)c1ccc2c(c1)C(c1ccccc1CO)=CCC2 [Example 2-35] | 0.03 to 0.3 |
| CN(C)Cc1ccccc1C1=CCCc2ccc(C(=O)N=C(N)N)cc21 [Example 2-36] | 0.03 to 0.3 |
| CCOc1ccccc1C1=CCCc2ccc(C(=O)N=C(N)N)cc21 [Example 2-44] | 0.03 to 0.3 |
| CC(C)Oc1ccccc1C1=CCCc2ccc(C(=O)N=C(N)N)cc21 [Example 2-45] | 0.03 to 0.3 |
| NC(N)=NC(=O)c1ccc2c(c1)C(c1ccccc1O)=CCC2 [Example 2-50] | 0.003 to 0.03 |
| NC(N)=NC(=O)c1ccc2c(c1)C(c1ccc(F)nc1)=CCC2 [Example 2-53] | 0.003 to 0.03 |
| N#Cc1cc(F)ccc1C1=CCCc2ccc(C(=O)N=C(N)N)cc21 [Example 2-57] | 0.003 to 0.03 |
| COc1ccccc1C1=C(C)CCc2ccc(C(=O)N=C(N)N)cc21 [Example 2-58] | 0.003 to 0.03 |
| COc1ccc(C#N)cc1C1=CCCc2ccc(C(=O)N=C(N)N)cc21 [Example 2-61] | 0.003 to 0.03 |
| N#Cc1cc(C2=CCCc3ccc(C(=O)N=C(N)N)cc32)ccc1F [Example 2-62] | 0.03 to 0.3 |
| COc1cccc(C#N)c1C1=CCCc2ccc(C(=O)N=C(N)N)cc21 [Example 2-66] | 0.03 to 0.3 |
| COc1ccc(C2=CCCc3ccc(C(=O)N=C(N)N)cc32)c(C#N)c1 [Example 2-68] | 0.03 to 0.3 |
| Cc1cc(C)c(C2=CCCc3ccc(C(=O)N=C(N)N)cc32)c(C)c1 [Example 2-69] | 0.003 to 0.03 |
| COc1cc(F)ccc1C1=C(C)CCc2ccc(C(=O)N=C(N)N)cc21 [Example 2-71] | 0.003 to 0.03 |
| Cn1cc(C2=CCCc3ccc(C(=O)N=C(N)N)cc32)cn1 [Example 2-77] | 0.03 to 0.3 |
| COc1ccc(C2=CCCc3ccc(C(=O)N=C(N)N)cc32)cc1C#N [Example 2-78] | 0.003 to 0.03 |
| Cc1ccc(C2=CCCc3ccc(C(=O)N=C(N)N)cc32)c(C#N)c1 [Example 2-79] | 0.003 to 0.03 |
| CC1(C)CC=C(c2ccccc2)c2cc(C(=O)N=C(N)N)ccc21 [Example 2-80] | 0.03 to 0.3 |
| Cn1nccc1C1=CCCc2ccc(C(=O)N=C(N)N)cc21 [Example 2-81] | 0.003 to 0.03 |

| Structure (SMILES) | Ki [µM] |
| --- | --- |
| CSc1ccccc1C1=CCCc2ccc(C(=O)N=C(N)N)cc21 [Example 2-82] | 0.003 to 0.03 |
| NC(N)=NC(=O)c1ccc2c(c1)C(c1cnccn1)=CCC2 [Example 2-86] | 0.03 to 0.3 |
| CCOc1ccc(C2=CCCc3ccc(C(=O)N=C(N)N)cc32)cc1 [Example 2-87] | 0.003 to 0.03 |
| CC(C)Oc1ccc(C2=CCCc3ccc(C(=O)N=C(N)N)cc32)cc1 [Example 2-88] | 0.03 to 0.3 |
| NC(N)=NC(=O)c1ccc2c(c1)C(c1ccccn1)=CCC2 [Example 2-89] | 0.03 to 0.3 |
| NC(N)=NC(=O)c1ccc2c(c1)C(c1ccc(F)cc1F)=C(F)CC2 [Example 2-90] | 0.003 to 0.03 |
| NC(N)=NC(=O)c1ccc2c(c1)C(c1nccs1)=CCC2 [Example 2-93] | 0.03 to 0.3 |
| COc1cc(F)c(C2=CCCc3ccc(C(=O)N=C(N)N)cc32)c(F)c1 [Example 2-94] | 0.003 to 0.03 |
| CS(=O)(=O)c1ccc(C2=CCCc3ccc(C(=O)N=C(N)N)cc32)cc1 [Example 2-97] | 0.03 to 0.3 |
| NC(N)=NC(=O)c1ccc2c(c1)C(c1ccccc1OC(F)(F)F)=CCC2 [Example 2-98] | 0.03 to 0.3 |
| COc1cc(F)c(F)cc1C1=CCCc2ccc(C(=O)N=C(N)N)cc21 [Example 2-100] | 0.003 to 0.03 |
| N#CCc1ccccc1C1=CCCc2ccc(C(=O)N=C(N)N)cc21 [Example 2-114] | 0.03 to 0.3 |
| CCC1=C(c2ccccc2)c2cc(C(=O)N=C(N)N)ccc2CC1 [Example 2-115] | 0.003 to 0.03 |
| CCCC1=C(c2ccccc2)c2cc(C(=O)N=C(N)N)ccc2CC1 [Example 2-116] | 0.03 to 0.3 |
| NC(N)=NC(=O)c1ccc2c(c1)C(c1ccc(C(F)(F)F)cc1C(F)(F)F)=CCC2 [Example 2-117] | 0.03 to 0.3 |
| NC(N)=NC(=O)c1ccc2c(c1)C(c1cncc(F)c1)=CCC2 [Example 2-123] | 0.03 to 0.3 |
| NC(N)=NC(=O)c1ccc2c(c1)C(c1cc(Cl)c(F)cc1F)=CCC2 [Example 2-136] | 0.003 to 0.03 |
| COc1ncccc1C1=CCCc2ccc(C(=O)N=C(N)N)cc21 [Example 2-140] | 0.003 to 0.03 |
| CC1=C(c2ccc(C)nc2)c2cc(C(=O)N=C(N)N)ccc2CC1 [Example 2-141] | 0.003 to 0.03 |
| NC(N)=NC(=O)c1ccc2c(c1)C(c1ccc(C(F)(F)F)nc1)=CCC2 [Example 2-142] | 0.03 to 0.3 |

Next, values leading:

| Ki [µM] | Structure (SMILES) |
| --- | --- |
| 0.003 to 0.03 | NC(N)=NC(=O)c1ccc2c(c1)C(C1CCOCC1)=CCC2 [Example 2-31] |
| 0.003 to 0.03 | CN(C)Cc1ccc(C2=CCCc3ccc(C(=O)N=C(N)N)cc32)cc1 [Example 2-32] |
| 0.003 to 0.03 | NC(N)=NC(=O)c1ccc2c(c1)C(c1cccc(CO)c1)=CCC2 [Example 2-34] |
| 0.003 to 0.03 | CN(C)Cc1cccc(C2=CCCc3ccc(C(=O)N=C(N)N)cc32)c1 [Example 2-38] |
| 0.0003 to 0.003 | NC(N)=NC(=O)c1ccc2c(c1)C(c1ccccc1)=C(F)CC2 [Example 2-43] |
| 0.003 to 0.03 | NC(N)=NC(=O)c1ccc2c(c1)C(c1ccccc1[N+](=O)[O-])=CCC2 [Example 2-46] |
| 0.003 to 0.03 | NC(N)=NC(=O)c1ccc2c(c1)C(c1cccc([N+](=O)[O-])c1)=CCC2 [Example 2-47] |
| 0.0003 to 0.003 | NC(N)=NC(=O)c1ccc2c(c1)C(c1ccc([N+](=O)[O-])cc1)=CCC2 [Example 2-48] |
| 0.003 to 0.03 | NC(N)=NC(=O)c1ccc2c(c1)C(c1ccncc1)=CCC2 [Example 2-49] |
| 0.0003 to 0.003 | NC(N)=NC(=O)c1ccc2c(c1)C(c1cccc(O)c1)=CCC2 [Example 2-51] |
| 0.0003 to 0.003 | NC(N)=NC(=O)c1ccc2c(c1)C(c1ccc(O)cc1)=CCC2 [Example 2-52] |
| 0.0003 to 0.003 | COc1cc(F)ccc1C1=CCCc2ccc(C(=O)N=C(N)N)cc21 [Example 2-54] |
| 0.0003 to 0.003 | COc1cc(C#N)ccc1C1=CCCc2ccc(C(=O)N=C(N)N)cc21 [Example 2-55] |
| 0.0023 | CC1=C(c2ccccc2)c2cc(C(=O)N=C(N)N)ccc2CC1 [Example 2-56] |
| 0.0003 to 0.003 | CC1=C(c2ccc(C#N)cc2)c2cc(C(=O)N=C(N)N)ccc2CC1 [Example 2-59] |
| 0.0003 to 0.003 | NC(N)=NC(=O)c1ccc2c(c1)C(c1c(F)cc(F)cc1F)=CCC2 [Example 2-60] |
| 0.0003 to 0.003 | NC(N)=NC(=O)c1ccc2c(c1)C(c1ccc(Cl)cc1F)=CCC2 [Example 2-67] |
| 0.0003 to 0.003 | NC(N)=NC(=O)c1ccc2c(c1)C(c1ccc(F)cc1Cl)=CCC2 [Example 2-70] |
| 0.0003 to 0.003 | COc1ccc(C2=CCCc3ccc(C(=O)N=C(N)N)cc32)c(F)c1 [Example 2-85] |
| 0.0003 to 0.003 | N#Cc1ccc(C2=C(F)CCc3ccc(C(=O)N=C(N)N)cc32)cc1 [Example 2-91] |
| 0.0003 to 0.003 | NC(N)=NC(=O)c1ccc2c(c1)C(c1ccc(F)c(F)c1F)=CCC2 [Example 2-95] |
| 0.0003 to 0.003 | NC(N)=NC(=O)c1ccc2c(c1)C(c1ccc(F)cc1)=C(F)CC2 [Example 2-96] |
| 0.0003 to 0.003 | NC(N)=NC(=O)c1ccc2c(c1)C(c1c(F)ccc(F)c1F)=CCC2 [Example 2-99] |
| 0.0003 to 0.003 | NC(N)=NC(=O)c1ccc2c(c1)C(c1ccc(F)cc1F)=CCC2 [Example 2-101] |
| 0.0003 to 0.003 | NC(N)=NC(=O)c1ccc2c(c1)C(c1c(F)cccc1F)=CCC2 [Example 2-105] |
| 0.0003 to 0.003 | NC(N)=NC(=O)c1ccc2c(c1)C(c1cccc(Cl)c1F)=CCC2 [Example 2-110] |
| 0.0003 to 0.003 | Cc1ccc(C2=CCCc3ccc(C(=O)N=C(N)N)cc32)c(Cl)c1 [Example 2-134] |
| 0.0003 to 0.003 | Cc1cc(Cl)ccc1C1=CCCc2ccc(C(=O)N=C(N)N)cc21 [Example 2-135] |
